Data: patent publication US11166894B2, “Shampoo compositions comprising a chelant” (The Procter & Gamble Company, priority 2016, dated 2021)
“Also recorded” adds a separate entry of the source.

Columns and labels:
[1] = log of formation constant of complex with copper; cited from earlier work
[2] = Copper on hair after repeat shampoo wash cycles (ICP-OES), versus shampoo without chelant; conditions: for reduction/removal of copper on hair compared to control shampoo (in words): 20 shampoo cycles, clarifying shampoo; for Copper Removing Performance from Shampoo: clarifying shampoo containing the chelant, 20 cycles, copper content of hair compared to shampoo without the chelant; for reduces copper by: shampoo composition containing 0.1 wt % chelant, 20 cleaning cycles, compared to shampoo without the chelant; for reduction/removal of copper on hair compared to shampoo without chelant (in words): 10 shampoo cycles
Method: The copper removing performance of the shampoo composition is determined by treating hair with clarifying shampoo containing the corresponding chelant for 20 cycles and comparing the copper content of the hair compared to the same treatment using shampoo without the chelant.
(§1) All testing are performed on colored hair switches (see Method of Measurement of Copper on Hair below) weighing approximately […] and having a length of approximately 6 inches. The hair switches are commercially available from IHIP (International Hair Importers). Three hair switches per sampoo composition are used. An amount of […] of shampoo is spread via a syringe onto separate hair switch. That is, the dosage is 0.10 g of shampoo per g of hair. Each application consists of adding shampoo to the hair, milking for 30 seconds followed by rinsing for 30 seconds. Shampoo is then reapplied (0.1 g/g), milked for 30 seconds and rinsed for 30 seconds. Excess water is squeezed from the hair switches and left to air dry or treated with a rinse-off conditioner and/or a leave-on treatment composition. This protocol is repeated for a number of times/cycles (as indicated in the tables below, which describe the details of hair treatments).
The following test method is used to assess the ability of the compositions and regimens to remove copper from the hair and to inhibit copper deposition onto the hair.
Hair switches are colored once with an oxidative hair colorant. An extra blonde shade is used for the testing. The hair switches are washed for 10 or 20 repeat wash cycles in tap water containing 7 grains per gallon water hardness (Ca/Mg) and 0.06 μg/g copper ions. Each wash cycle consists of two applications of 0.1 g/g a shampoo to the hair switches. Each application consists of adding shampoo to the hair, milking for 30 secs followed by rinsing for 30 secs. Shampoo is then reapplied 0.1 g/g, milked for 30 secs, rinsed for 30 secs and then dried in a heat box (60° C.) until dry.
Samples of 100 mg of hair are digested overnight with 2 ml of high purity concentrated nitric acid. The digestive mixture also contains 150 μL of 100 μg/g Yttrium internal standard (Inorganic Ventures, Christianburg, Va., USA). Following digestion, samples are heated to 70-80° C. for one hour, cooled to room temperature and diluted to 15 mL with deionized water. Copper content of the hair switches is determined by inductively coupled plasma atomic spectroscopy (ICP-OES)). For each leg, 3 different samples are analyzed.
In order to minimize the variability of the resulting copper content on hair that is related to (a) lot-to-lot viariability due to hair switches and (b) day-to-day variability of the water used during shampoo and conditioner treatments, a single lot of hair switches is used for each experimental series and a separate control experiment/treatment is run for each experimental series (see below).

[3] = log P, n-octanol/water partition coefficient; type: physicochemical
Source text: The term log P is the n-octanol/water partition coefficients of the material.
The copper to be removed is inside the hair and the chelant needs to penetrate inside hair and form a strong copper-chelant complex. This copper-chelant complex needs to be water soluble and thus easily removed during the rinsing process. […] These are log P, the octanol/water partitioning coefficient, and the molecular weight of the chelant. Both are related to the ability of the chelant to penetrate into hair and also form a water soluble copper-chelant complex

[4] = Copper on hair after regimen cycles of shampoo, rinse-off conditioner and leave-on treatment (ICP-OES); conditions: 20 conditioning shampoo/rinse-off conditioner/leave-on treatment regimen cycles
Method: as §1
The following test method is used to assess the ability of the compositions and regimens to remove copper from the hair and to inhibit copper deposition onto the hair. […]
Samples of 100 mg of hair are digested overnight with 2 ml of high purity concentrated nitric acid. […] Copper content of the hair switches is determined by inductively coupled plasma atomic spectroscopy (ICP-OES)). For each leg, 3 different samples are analyzed. […]

| logP [3] | SMILES | Log KML Cu [1] | reduction/removal of copper on hair compared to control shampoo (in words) [2] | Copper Removing Performance from Shampoo [2] [%] | also measured |
| --- | --- | --- | --- | --- | --- |
| -2.7 | NCCNCCNCCNCCN [2,4-Tetraethylenepentamine] | 22.8 | more effective treatements | 60 | – |
| -2.2 | NCCN(CCN)CCN [Tris(2-aminoethyl)amine] | 18.8 | – | 45 | reduction/removal of copper on hair compared to shampoo without chelant (in words) [2]: effective removal of copper from hair |
| -2.3 | NCCNCCNCCN [2,3-Triethylenetetramine] | 20.1 | effective removal of copper from hair; also recorded: more effective treatements | 70 | reduction/removal of copper on hair compared to shampoo without chelant (in words) [2]: significant reduction of copper content on hair; removal of copper from hair compared to control regimen (in words) [4]: effective removal of copper from hair |
| -2.9 | OCCN(CCO)CCN(CCO)CCN(CCO)CCN(CCO)CCN(CCO)CCO [Tetraethylenepentaamine-(1-EO)] | – | – | – | – |

The next lines start with the compound.

| SMILES | logP [3] | Log KML Cu [1] | reduction/removal of copper on hair compared to control shampoo (in words) [2] | Copper Removing Performance from Shampoo [2] [%] | also measured |
| --- | --- | --- | --- | --- | --- |
| CC(O)CN(CCN(CC(C)O)CC(C)O)CC(C)O (stereo not shown) [Ethylenedinitrilotetrapropan-2-ol] | – | 9.8 | effective removal of copper from hair | 30 | Log P [3]: −0.2 |
| O=C(O)CNCC(=O)O [iminodiacetic acid] | – | – | – | – | reduces copper by [2]: 40% |
| CC(O)CN(CCN(CC(C)O)CC(C)O)CCN(CC(C)O)CC(C)O (stereo not shown) [Pentrol] | – | – | – | – | Log P [3]: −0.2 |
| NCCCNCCCNCCCN [1,5,9,13-Tetraazatridecane] | -2.1 | 17.1 | – | 15 | – |
| O=C(O)CN(CCO)CC(=O)O [N-(2-hydroxyethyl)iminodiacetic acid] | – | – | – | – | reduces copper by [2]: 30% |
